Results from patent US20120128665A1, “PRESELECTION OF SUBJECTS FOR THERAPEUTIC TREATMENT BASED ON HYPOXIC STATUS” (SYNTA PHARMACEUTICALS CORP., priority 2010, published 2012).
Where two headings read alike, the source gives them in different places.

Assays:
[1] = system: locally advanced, unresectable or metastatic pancreatic cancer; conditions: 100 mg cohort, erlotinib arm = plus gemcitabine, comparator gemcitabine alone, cited from earlier work; for progression free survival: p=0.006; for survival: p=0.028
[2] = system: HCT116 tumors vs 786O tumors; test: response of hypoxic vs non-hypoxic tumors; format: in vivo, nude mice; conditions: doses as in the 3rd table
mTORC1 = mTORC1 (Homo sapiens, UniProt P42345); conditions: immune-kinase assays; cited from earlier work
[3] = system: phosphorylated RPS6 (ribosomal protein S6); conditions: TSC1-deficient cells; cited from earlier work
mTORC2 = mTORC2 (Homo sapiens, UniProt P42345); conditions: immune-kinase assays; cited from earlier work
[4] = system: metastatic colorectal cancer (mCRC); conditions: cited from earlier work
[5] = system: metastatic colorectal cancer (mCRC); conditions: P <0.001, cited from earlier work
pancreatic cancer = conditions: PTK787 and gemcitabine, cited from earlier work
[6] = system: HCT116 human colon carcinoma xenograft; test: HCT116 xenograft model (hypoxic tumor); format: in vivo, nude mice
Experimental: (§1) Human tumor cell lines HCT116 (ATCC #CRL-247; Schroy PC, et al. Cancer 76:201-209, 1995) and 786-O (ATCC #CRL-1932; Williams RD, et al. In Vitro 12:623-627, 1976), were obtained from the American Type Culture Collection (Manassus, Va., USA) were cultured using routine methods until a sufficient number of cells were obtained for implantation. Studies were conducted on animals between 7 and 12 weeks of age at implantation. To implant HCT116 tumor cells into nude mice, the cells were trypsinized, washed in PBS and resuspended at a concentration of 75×10^6 cells/ml in McCoy's modified medium with 50% of BD Matrigel® Basement Membrane Matrix (BD Biosciences®, Bedford, Mass., USA). To implant 786-O tumor cells into nude mice, the cells were trypsinized as above, washed in PBS and resuspended at a concentration of 75×10^6 cells/ml in RPMI 1640 medium with 50% of BD Matrigel® Basement Membrane Matrix. Using a 27 gauge needle and 1 cc syringe, 0.1 ml of the cell suspension was injected into the corpus adiposum of nude mice. The corpus adiposum is a fat body located in the ventral abdominal vicera in the right quadrant of the abdomen at the juncture of the os coxae (pelvic bone) and the os femoris (femur). The location permits palpation and measurement of the tumors using external calipers. Tumor volumes (V) were calculated by caliper measurement of the width (W), length (L) and thickness (T) of tumors using the following formula: V=0.5236×(L×W×T). Animals were randomized into treatment groups so that the average tumor volumes of each group were similar at the start of dosing.
(§2) A tumor model in which the tumors have relatively high and low levels of LDH5, indicating high and low levels of hypoxia, using human tumor cell lines HCT116 and 786-O was established as set forth in the previous example.
(§3) As above, HCT116 and 786-O cells were cultured and implanted into nude mice using the methods in the previous example. Tumor growth was measured using calipers. Prior to treatment with the various agents, tumors were permitted to develop in vivo until they reached approximately 150 mm^3 in volume, which typically required 2-3 weeks following implantation. Animals were randomized into treatment groups so that the average tumor volumes of each group were similar at the start of dosing.
(§4) Tumor volume was monitored throughout the course of the study, until up to about 40 days from the date of tumor implantation. The exact number of days of the study depended on a number of factors including, for example, the number of days from implantation for the tumors to reach the desired volume.

[7] = system: 786-O human renal carcinoma xenograft; test: 786-O xenograft model (non-hypoxic tumor); format: in vivo, nude mice
Experimental: as §1, §2, §3, §4

[8] = system: mCRC pretreated with 5-FU/irinotecan; conditions: cited from earlier work
RCC and poor prognosis = conditions: cited from earlier work
renal cancer = conditions: bevacizumab arm = with interferon-alpha; comparator interferon-alpha alone; cited from earlier work
[9] = system: advanced RCC and poor prognosis; conditions: cited from earlier work; for progression-free survival / median overall survival: single agents; for progression-free survival: P=0.0001; for median overall survival: P=0.0078
[10] = system: advanced pancreatic cancer; conditions: Phase III, combination with Gemcitabine; cited from earlier work
breast cancer = conditions: xenograft models; cited from earlier work
[11] = system: advanced pancreatic cancer; conditions: Phase II, combination with Gemcitabine; cited from earlier work
[12] = system: previously treated metastatic renal cell carcinoma (mRCC); conditions: Phase III, 2010; cited from earlier work
[13] = system: locally advanced or metastatic NSCLC; conditions: maintenance, cited from earlier work
[14] = system: locally advanced or metastatic NSCLC after failure of at least one chemotherapy regimen; conditions: erlotinib 150 mg orally once daily; cited from earlier work
JAK2V617F = JAK2V617F (Homo sapiens, UniProt O60674, V617F); conditions: cited from earlier work
Sequence of JAK2V617F (O60674 whole entry V617F): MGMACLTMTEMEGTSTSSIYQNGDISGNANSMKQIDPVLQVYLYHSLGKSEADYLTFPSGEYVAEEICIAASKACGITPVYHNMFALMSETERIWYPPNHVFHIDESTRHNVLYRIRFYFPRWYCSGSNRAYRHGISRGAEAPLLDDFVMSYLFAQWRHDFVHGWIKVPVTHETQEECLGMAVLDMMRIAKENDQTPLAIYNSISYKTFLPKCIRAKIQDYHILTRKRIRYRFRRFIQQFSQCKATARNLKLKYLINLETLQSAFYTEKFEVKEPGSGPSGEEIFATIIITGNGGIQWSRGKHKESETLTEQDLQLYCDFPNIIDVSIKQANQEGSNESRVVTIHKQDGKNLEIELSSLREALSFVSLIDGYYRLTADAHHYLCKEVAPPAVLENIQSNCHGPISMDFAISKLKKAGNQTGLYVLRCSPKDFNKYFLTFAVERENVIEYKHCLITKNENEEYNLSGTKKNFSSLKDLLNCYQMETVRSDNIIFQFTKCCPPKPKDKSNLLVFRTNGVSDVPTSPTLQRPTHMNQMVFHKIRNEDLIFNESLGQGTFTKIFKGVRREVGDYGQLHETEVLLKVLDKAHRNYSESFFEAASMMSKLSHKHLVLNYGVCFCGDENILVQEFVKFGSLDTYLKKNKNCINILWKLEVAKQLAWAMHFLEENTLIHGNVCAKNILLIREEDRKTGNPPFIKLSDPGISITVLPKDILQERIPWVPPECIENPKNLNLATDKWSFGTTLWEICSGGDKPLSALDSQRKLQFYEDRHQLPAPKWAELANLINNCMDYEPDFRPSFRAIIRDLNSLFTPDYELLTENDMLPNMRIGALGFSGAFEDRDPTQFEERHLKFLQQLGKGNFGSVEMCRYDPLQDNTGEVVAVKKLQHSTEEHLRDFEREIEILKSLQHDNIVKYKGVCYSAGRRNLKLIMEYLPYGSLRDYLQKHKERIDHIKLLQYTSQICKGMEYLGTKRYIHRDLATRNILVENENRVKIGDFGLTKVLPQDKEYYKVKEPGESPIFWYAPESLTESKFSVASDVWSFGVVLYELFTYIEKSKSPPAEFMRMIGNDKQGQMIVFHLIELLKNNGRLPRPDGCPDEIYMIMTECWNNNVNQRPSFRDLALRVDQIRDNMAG

angiogenesis = conditions: mouse model; cited from earlier work
VEGFR-2 [15] = biological target: T1, VEGFR-2 (Mus musculus, UniProt P35918); conditions: in vivo, cited from earlier work
T1 construct: from tissue; host or cells: mouse lungs (in vivo)
T1 sequence (P35918 20-1345): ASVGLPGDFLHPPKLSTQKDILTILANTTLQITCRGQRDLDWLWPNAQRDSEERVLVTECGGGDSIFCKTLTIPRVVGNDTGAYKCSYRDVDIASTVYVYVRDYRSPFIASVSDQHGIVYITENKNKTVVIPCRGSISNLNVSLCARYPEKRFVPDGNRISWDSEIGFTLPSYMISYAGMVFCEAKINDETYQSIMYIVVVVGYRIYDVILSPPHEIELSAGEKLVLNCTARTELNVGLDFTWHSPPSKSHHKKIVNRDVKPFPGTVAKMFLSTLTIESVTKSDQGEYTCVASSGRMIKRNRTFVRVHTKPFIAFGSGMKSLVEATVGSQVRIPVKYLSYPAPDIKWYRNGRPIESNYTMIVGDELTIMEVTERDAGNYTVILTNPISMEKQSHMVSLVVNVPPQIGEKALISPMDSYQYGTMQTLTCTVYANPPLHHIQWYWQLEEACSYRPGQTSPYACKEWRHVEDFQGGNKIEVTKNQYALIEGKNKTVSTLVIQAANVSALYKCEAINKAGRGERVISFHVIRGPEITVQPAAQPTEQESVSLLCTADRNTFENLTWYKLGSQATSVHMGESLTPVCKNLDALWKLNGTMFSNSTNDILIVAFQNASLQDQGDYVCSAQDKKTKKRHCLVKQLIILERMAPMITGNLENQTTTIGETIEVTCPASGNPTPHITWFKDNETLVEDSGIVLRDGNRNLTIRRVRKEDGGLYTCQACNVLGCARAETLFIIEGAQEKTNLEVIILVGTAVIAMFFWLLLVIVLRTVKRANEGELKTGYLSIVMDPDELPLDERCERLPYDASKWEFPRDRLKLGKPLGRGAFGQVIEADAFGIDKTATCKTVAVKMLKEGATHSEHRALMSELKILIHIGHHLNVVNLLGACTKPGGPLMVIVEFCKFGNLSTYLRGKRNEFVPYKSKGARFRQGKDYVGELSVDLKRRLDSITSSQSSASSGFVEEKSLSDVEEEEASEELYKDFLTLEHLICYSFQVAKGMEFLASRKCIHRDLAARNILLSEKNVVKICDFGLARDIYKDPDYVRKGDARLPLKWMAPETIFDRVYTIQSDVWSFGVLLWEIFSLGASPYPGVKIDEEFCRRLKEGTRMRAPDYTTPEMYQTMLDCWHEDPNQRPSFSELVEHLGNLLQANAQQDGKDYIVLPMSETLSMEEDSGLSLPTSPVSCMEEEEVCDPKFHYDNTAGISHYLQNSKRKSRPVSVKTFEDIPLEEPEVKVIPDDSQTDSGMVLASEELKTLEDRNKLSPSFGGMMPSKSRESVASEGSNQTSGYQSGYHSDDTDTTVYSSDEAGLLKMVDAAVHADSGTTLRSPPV

human tumor xenografts = conditions: mice; cited from earlier work
VEGFR-2 [16] = biological target: VEGFR-2 (Homo sapiens, UniProt P35968); conditions: in vitro; cited from earlier work
Sequence of VEGFR-2 (Homo sapiens, UniProt P35968) (P35968 20-1356, species assumed): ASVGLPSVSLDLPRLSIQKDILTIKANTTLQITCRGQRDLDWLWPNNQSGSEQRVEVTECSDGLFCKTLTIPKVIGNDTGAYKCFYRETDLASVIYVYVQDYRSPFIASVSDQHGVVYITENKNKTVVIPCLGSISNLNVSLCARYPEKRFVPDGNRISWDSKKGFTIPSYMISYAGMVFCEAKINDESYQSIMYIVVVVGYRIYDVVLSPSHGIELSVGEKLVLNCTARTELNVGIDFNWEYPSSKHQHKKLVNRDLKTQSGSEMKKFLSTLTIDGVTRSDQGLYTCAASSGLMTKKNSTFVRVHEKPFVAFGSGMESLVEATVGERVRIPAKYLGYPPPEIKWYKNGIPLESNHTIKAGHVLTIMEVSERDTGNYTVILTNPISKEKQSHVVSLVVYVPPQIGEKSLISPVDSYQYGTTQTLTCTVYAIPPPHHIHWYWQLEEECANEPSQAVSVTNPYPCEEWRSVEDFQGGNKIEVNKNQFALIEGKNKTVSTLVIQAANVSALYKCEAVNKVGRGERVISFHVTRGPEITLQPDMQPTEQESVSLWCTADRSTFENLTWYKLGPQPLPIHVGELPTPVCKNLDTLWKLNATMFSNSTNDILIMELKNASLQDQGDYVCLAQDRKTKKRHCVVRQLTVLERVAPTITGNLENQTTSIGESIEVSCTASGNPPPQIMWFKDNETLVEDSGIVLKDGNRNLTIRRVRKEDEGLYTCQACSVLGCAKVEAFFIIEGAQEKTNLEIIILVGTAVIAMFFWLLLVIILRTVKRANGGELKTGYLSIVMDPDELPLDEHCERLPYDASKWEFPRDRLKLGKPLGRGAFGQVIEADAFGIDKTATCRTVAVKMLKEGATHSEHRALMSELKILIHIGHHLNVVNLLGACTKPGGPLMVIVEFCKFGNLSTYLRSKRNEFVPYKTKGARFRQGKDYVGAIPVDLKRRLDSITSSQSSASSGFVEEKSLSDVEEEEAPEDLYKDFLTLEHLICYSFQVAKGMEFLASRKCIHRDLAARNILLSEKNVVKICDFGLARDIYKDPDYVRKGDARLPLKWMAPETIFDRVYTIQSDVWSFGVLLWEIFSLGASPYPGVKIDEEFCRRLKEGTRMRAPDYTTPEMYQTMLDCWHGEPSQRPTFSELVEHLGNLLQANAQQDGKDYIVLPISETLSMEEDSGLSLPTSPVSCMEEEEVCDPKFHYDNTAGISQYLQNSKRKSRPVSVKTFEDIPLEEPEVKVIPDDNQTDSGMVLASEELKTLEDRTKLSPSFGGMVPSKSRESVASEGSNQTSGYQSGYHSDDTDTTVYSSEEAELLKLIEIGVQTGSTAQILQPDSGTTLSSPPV

[17] = system: renal cell carcinoma cell lines; conditions: cited from earlier work
PDGFR-β = PDGFR-β (Homo sapiens, UniProt P09619); conditions: in vitro; cited from earlier work
Sequence of PDGFR-β (P09619 33-1106, species assumed): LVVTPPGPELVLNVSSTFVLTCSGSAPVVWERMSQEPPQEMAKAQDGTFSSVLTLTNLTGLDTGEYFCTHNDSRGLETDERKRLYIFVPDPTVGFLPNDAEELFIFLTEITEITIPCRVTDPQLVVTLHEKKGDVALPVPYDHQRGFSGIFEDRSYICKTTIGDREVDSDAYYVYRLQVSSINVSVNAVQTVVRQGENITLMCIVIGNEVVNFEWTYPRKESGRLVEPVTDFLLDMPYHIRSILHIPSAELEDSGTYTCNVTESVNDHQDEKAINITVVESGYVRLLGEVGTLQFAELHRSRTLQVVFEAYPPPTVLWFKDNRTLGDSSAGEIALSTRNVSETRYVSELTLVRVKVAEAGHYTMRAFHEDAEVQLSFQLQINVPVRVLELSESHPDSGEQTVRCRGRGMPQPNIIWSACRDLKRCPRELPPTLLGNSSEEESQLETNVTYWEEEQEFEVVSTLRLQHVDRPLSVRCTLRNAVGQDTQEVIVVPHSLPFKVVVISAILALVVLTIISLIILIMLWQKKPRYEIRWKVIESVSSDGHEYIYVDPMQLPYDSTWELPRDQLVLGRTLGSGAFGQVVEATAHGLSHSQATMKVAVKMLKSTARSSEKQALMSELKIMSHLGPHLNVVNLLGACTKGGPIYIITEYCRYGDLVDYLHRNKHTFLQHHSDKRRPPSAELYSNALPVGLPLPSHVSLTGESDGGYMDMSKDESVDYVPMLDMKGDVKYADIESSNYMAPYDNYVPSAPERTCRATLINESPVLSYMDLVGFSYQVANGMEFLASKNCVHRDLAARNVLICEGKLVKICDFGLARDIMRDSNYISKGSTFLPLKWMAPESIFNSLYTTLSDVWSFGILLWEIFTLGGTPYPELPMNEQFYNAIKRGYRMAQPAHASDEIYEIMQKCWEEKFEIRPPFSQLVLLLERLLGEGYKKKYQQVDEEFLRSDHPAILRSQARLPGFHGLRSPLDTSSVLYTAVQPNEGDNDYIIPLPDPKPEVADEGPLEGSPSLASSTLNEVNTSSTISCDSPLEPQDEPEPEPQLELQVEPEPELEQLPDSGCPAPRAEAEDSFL

[18] = 140 subjects with elevated LDH, log-rank p<0.005
[19] = 264 subjects with normal LDH, log-rank p=0.514

Molecule: Nc1ccn([C@@H]2O[C@H](CO)[C@@H](O)C2(F)F)c(=O)n1 [gemcitabine]
- progression free survival [1]: 3.5 months
- survival [1]: 6.0 months

Molecule: CCN(CC)CCNC(=O)c1c(C)[nH]c(/C=C2\C(=O)Nc3ccc(F)cc32)c1C [sutent]
- effectiveness at slowing tumor growth in tumors with high levels of hypoxia (HCT116) compared with low levels (786O) [2]: not found to work better

Molecule: Cn1c(=O)n(-c2ccc(C(C)(C)C#N)cc2)c2c3cc(-c4cnc5ccccc5c4)ccc3ncc21 [BEZ235]
- mTORC1 kinase activity (mTORC1): blocks
- levels of phosphorylated RPS6 [3]: significantly reduce
- effectiveness at slowing tumor growth in tumors with high levels of hypoxia (HCT116) compared with low levels (786O) [2]: not found to work better
- mTORC2 kinase activity (mTORC2): blocks

Molecule: panitumumab: Anti-EGFR
- effectiveness at slowing tumor growth in tumors with high levels of hypoxia (HCT116) compared with low levels (786O) [2]: not found to work better

Molecule: Clc1ccc(Nc2nnc(Cc3ccncc3)c3ccccc23)cc1 [PTK787, N-(4-chlorophenyl)-4-(pyridin-4-ylmethyl)phthalazin-1-amine]
- PFS HR ([4]; CONFIRM 1 - High LDH, N 316, P 0.002): 0.61
- PFS HR ([4]; CONFIRM 1 - Low LDH, N 852, P 0.43): 0.93
- PFS HR ([5]; All CONFIRM 1 & 2 High LDH Patients, N 566): 0.62
- PFS HR ([5]; All CONFIRM 1 & 2 Patients, N 2023): 0.82
- effectiveness at slowing tumor growth in tumors with high levels of hypoxia (HCT116) compared with low levels (786O) [2]: more effective
- duration of stable disease (pancreatic cancer): 2-6 months
- patients with stable disease as the best response (pancreatic cancer; six of eleven patients): 55%
- tumor growth as compared to control ([6]; 50 mg/kg 5×/week p.o., p=0.1209): reduced the growth of the tumor
- tumor burden as compared to control ([7]; 50 mg/kg 5×/week p.o., p=0.7805): no difference in tumor burden
- tumor burden as compared to control ([7]; Erlotinib section, FIG. 5B, 1×/week p.o., p=0.8548): no difference in tumor burden
- tumor burden as compared to control ([7]; XL765 section, FIG. 4B, 30 mg/kg 5×/week p.o., p=0.7682): no difference in tumor burden
- PFS HR ([8]; CONFIRM 2 - High LDH, N 250): 0.63
- PFS HR ([8]; CONFIRM 2 - Low LDH, N 605, P 0.58): 0.95

Molecule: interferon-alpha
- survival (RCC and poor prognosis; [18]): 4.2 months
- survival (RCC and poor prognosis; [19]): 10.4 months
- patients with decreased tumor size (renal cancer): 12%
- progression-free survival [9]: 3.1 months
- median overall survival [9]: 7.3 months

Molecule: CNC(=O)c1ccccc1Sc1ccc2c(/C=C/c3ccccn3)n[nH]c2c1 [Axitinib, N-Methyl-2-[[3-[(E)-2-pyridin-2-ylethenyl]-1H-indazol-6-yl]sulfanyl]benzamide]
- survival rates over Gemcitabine alone [10]: no evidence of improved survival rates
- growth of breast cancer (breast cancer): significantly inhibit growth
- response [11]: good response
- progression-free survival compared to sorafenib [12]: significantly extended progression-free survival

Molecule: CNC(=O)c1cc(Oc2ccc(NC(=O)Nc3ccc(Cl)c(C(F)(F)F)c3)cc2)ccn1 [sorafenib]
- effectiveness at slowing tumor growth in tumors with high levels of hypoxia (HCT116) compared with low levels (786O) [2]: not found to work better

Molecule: C#Cc1cccc(Nc2ncnc3cc(OCCOC)c(OCCOC)cc23)c1 [erlotinib]
- progression free survival ([13]; erlotinib 150 mg orally once daily): 2.8 months
- overall survival ([13]; difference not statistically significant): 12 weeks
- progression free survival [14]: 9.9 weeks
- rate of one year survival [14]: 31.2%
- response duration, median [14]: 34.3 weeks
- survival [14]: 6.7 months
- tumor response [14]: 8.9%
- JAK2V617F activity (JAK2V617F): potent inhibitor
- progression free survival [1]: 3.8 months
- survival [1]: 6.4 months
- effectiveness at slowing tumor growth in tumors with high levels of hypoxia (HCT116) compared with low levels (786O) [2]: more effective
- tumor growth rate as compared to control ([6]; 1×/week p.o., doses 40, 25, 10 mg/kg in the 3rd table, p=0.0224): reduced the growth rate of the tumor

Molecule: Cediranib
- angiogenesis (angiogenesis): inhibited
- VEGF-induced VEGFR-2 phosphorylation (VEGFR-2 [15]; mouse): inhibited
- growth of some human tumor xenografts (human tumor xenografts): inhibited
- ligand-induced autophosphorylation of VEGFR-2 (VEGFR-2 [16]): inhibited

Molecule: CO[C@H]1C[C@@H]2CC[C@@H](C)[C@@](O)(O2)C(=O)C(=O)N2CCCC[C@H]2C(=O)O[C@H]([C@H](C)C[C@@H]2CC[C@@H](OC(=O)C(C)(CO)CO)[C@H](OC)C2)CC(=O)[C@H](C)/C=C(\C)[C@@H](O)[C@@H](OC)C(=O)[C@H](C)C[C@H](C)/C=C/C=C/C=C/1C [temsirolimus]
- survival (RCC and poor prognosis; [18]): 6.9 months
- survival (RCC and poor prognosis; [19]): 11.7 months
- effectiveness at slowing tumor growth in tumors with high levels of hypoxia (HCT116) compared with low levels (786O) [2]: not found to work better
- activity of mTOR [17]: inhibited
- levels of HIF-1 and HIF-2 alpha, and vascular endothelial growth factor [17]: reduced levels
- overall survival compared with interferon-alpha alone ([9]; combination of temsirolimus and interferon-alpha): did not result in a significant increase in overall survival
- increase in median overall survival compared to interferon-alpha ([9]; human, in vivo): 49%
- progression-free survival [9]: 5.5 months
- median overall survival [9]: 10.9 months

Molecule: Cc1ccc(Nc2nccc(N(C)c3ccc4c(C)n(C)nc4c3)n2)cc1S(N)(=O)=O.Cl [pazopanib]
- angiogenesis (angiogenesis): inhibited
- VEGF-induced VEGFR-2 phosphorylation (VEGFR-2 [15]; mouse lungs): inhibited
- ligand-induced autophosphorylation of PDGFR-β (PDGFR-β): inhibited
- growth of some human tumor xenografts (human tumor xenografts): inhibited

Molecule: COc1cc(Nc2nc3ccccc3nc2NS(=O)(=O)c2ccc(NC(=O)c3ccc(C)c(OC)c3)cc2)cc(OC)c1 [XL765]
- effectiveness at slowing tumor growth in tumors with high levels of hypoxia (HCT116) compared with low levels (786O) [2]: more effective
- tumor growth rate as compared to control ([6]; 30 mg/kg 5×/week p.o., p=0.009): reduced the growth rate of the tumor
